Measured values as given in patent US20030133905A1, “Composition for treating contact lenses in the eye” (priority 2001, published 2003).

Target: T1, hen egg lysozyme (Gallus gallus, UniProt P00698)
T1 construct: 1 mg/ml of hen egg lysozyme; from tissue; host or cells: hen egg
Assay: Stabilization of lysozyme against heat denaturation, read out as lysis of M. luteus suspension (optical density at 450 nm)
Format: biochemical
Conditions: saline with 20 mM buffering agent
Procedure: Each solution included saline and 20 mM of buffering agent as identified in Table 1 below. To each test solution was added 1 mg/ml of hen egg lysozyme as well as a phosphate buffered saline (PBS) control. The test solutions were mixed slowly with a stir bar until the lysozyme was incorporated into the solutions. Five ml of each lysozyme-containing test solution was retained as the unheated control. The remaining 5 ml of each lysozyme-containing test solution were placed in glass lens vials, capped with silicone stoppers and incubated in a shaking water bath at 80° C., 40 revolutions per minute (rpm) for 1 hour. These heating conditions are sufficient to denature the lysozyme, absent a stabilization effect provided by the buffering agents. The vials were allowed to come to ambient temperature before testing. A 0.00025g/ml suspension of M. luteus was prepared from lyophilized cells in PBS. The suspension was continually mixed on a stir plate during the testing period to prevent the suspension from settling. For each set of test solutions, the following were tested (sample): a heated lysozyme-containing test solution (“lysozyme+heat”); an unheated lysozyme-containing test solution (“lysozyme/no heat”); and a test solution without lysozyme (“no lysozyme”). One ml of each sample was placed into a glass test tube to which 9 ml of M. luteus suspension was added and vortexed. A 1-ml sub-sample was placed into a disposable cuvette and evaluated on a UV-vis spectrophotometer at 450 nm. This procedure was performed for each sample at 0, 5 and 10 minutes. Each of the solutions was evaluated in triplicate. Each of the three optical density measurements from the triplicate samples was averaged. […] As shown by the test data set forth below in the Table 3, the lens drop solutions containing tromethamine were very effective at stabilizing the protein against denaturation.

[1] = lysozyme + heat (80° C., 1 hour), 1 mg/ml lysozyme
[2] = lysozyme/no heat, 1 mg/ml lysozyme, M. luteus suspension

T1 sequence (P00698 19-147): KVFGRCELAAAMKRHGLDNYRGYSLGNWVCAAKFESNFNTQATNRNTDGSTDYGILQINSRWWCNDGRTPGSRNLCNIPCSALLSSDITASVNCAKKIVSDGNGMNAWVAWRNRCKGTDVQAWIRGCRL

optical density at 450 nm, Time 0 Min [1] | optical density at 450 nm, Time 5 Min [1] | optical density at 450 nm, Time 10 Min [1] | optical density at 450 nm, Time 0 Min [2] | optical density at 450 nm, Time 5 Min [2] | optical density at 450 nm, Time 10 Min [2] | optical density at 450 nm, Time 0 Min (no lysozyme) | optical density at 450 nm, Time 5 Min (no lysozyme) | optical density at 450 nm, Time 10 Min (no lysozyme) | Compound
0.861 | 0.858 | 0.852 | 0.634 | 0.052 | 0.029 | 0.856 | 0.852 | 0.854 | Phosphate
0.810 | 0.154 | 0.117 | 0.654 | 0.048 | 0.028 | 0.859 | 0.854 | 0.854 | NC(CO)(CO)CO [Tris, 2-amino-2-hydroxymethyl-1,3-propanediol]
0.877 | 0.851 | 0.785 | 0.654 | 0.049 | 0.030 | 0.857 | 0.850 | 0.850 | O=C(O)CC(O)(CC(=O)O)C(=O)O [Citrate]

Compound | optical density at 450 nm, Time 0 Min [1] | optical density at 450 nm, Time 5 Min [1] | optical density at 450 nm, Time 10 Min [1] | optical density at 450 nm, Time 0 Min [2] | optical density at 450 nm, Time 5 Min [2] | optical density at 450 nm, Time 10 Min [2] | optical density at 450 nm, Time 0 Min (no lysozyme) | optical density at 450 nm, Time 5 Min (no lysozyme) | optical density at 450 nm, Time 10 Min (no lysozyme)
Borate | 0.872 | 0.681 | 0.390 | 0.619 | 0.053 | 0.034 | 0.853 | 0.853 | 0.854
